Test results: patent US20240174622A1, “COMPOUND AND RADIOACTIVE LABELING COMPOUND” (NIHON MEDI-PHYSICS CO., LTD., priority 2021, published 2024)

Experiments:
[1] = test system: LNCaP tumor-transplanted mouse; experiment: Internal radioactivity distribution using LNCaP tumor-transplanted mouse; format: in vivo
Description: (§1) The animal test was performed in compliance with the guidelines of Kyoto University Animal Experiment Committee. Male CB17/IcrJcl-Prkdc^scid mice were purchased from CLEA Japan, Inc. The animals were kept under 12 h/12 h, day/night cycle conditions and fed ad libitum with food and water. LNCaP cells (1.0×10^7 cells/mouse) or PC-3 cells (1.0×10^7 cells/mouse) were suspended in a mixture of PBS and Matrigel manufactured by Corning Life Sciences (1:1, 150 μL) and the suspension was subcutaneously transplanted to the right shoulder of mice under isoflurane anesthesia. Thereafter, the mice were kept for 40 to 60 days.
LNCaP or PC-3 tumor-implanted mice were administered saline solutions (185 kBq, 100 μL) of [^111In]In-PSMA-DA1 or [^111In]In-PSMA-DB from the tail vein (n=3 each). Mice were euthanized 1, 4, 24, 48, 96, and 192 hours after administration. Thereafter, blood and each organ were recovered, and the mass and radioactivity of the organs were measured.
The percentage (% ID) of the radioactivity amount to the administered radioactivity amount (injected dose) is shown as the value (% ID/g) divided by the blood mass or the organ mass (g).
LNCaP tumor-implanted mice prepared by the same method as in Example 1-1 were administered a saline solution (241 kBq/100 μL) of [^111In]In-PtDA from the tail vein (n=3). Mice were euthanized 1, 24, and 48 hours after administration. Thereafter, blood and each organ were recovered, and the mass and radioactivity of the organs were measured.
LNCaP tumor-implanted mice prepared by the same method as in Example 1-1 were administered a saline solution (259 kBq/100 μL each) of each of the radiolabeled compounds in Examples 3-1 to 3-3 or Comparative Examples 2-1 to 2-2 from the tail vein (n=2 to 3). Mice were euthanized 1, 4, 24, 48, 96, and 192 hours after administration. Thereafter, blood and each organ were recovered, and the mass and radioactivity of the organs were measured.
as §1, with “LNCaP cells (4.3×10^6 cells/mouse) or” for “LNCaP cells (1.0×10^7 cells/mouse) or”, “PC-3 cells (3.3×10^6 cells/mouse) were” for “PC-3 cells (1.0×10^7 cells/mouse) were”, “shoulder of CB17/IcrJcl-Prkdc^scid mice under” for “shoulder of mice under”
Mice were euthanized 1, 4, 24, 48, 96, and 192 hours after administration. Thereafter, blood and each organ were recovered, and the mass and radioactivity of the organs were measured.
The results are shown in Table 12 (Mean value±standard deviation, n=3).

[2] = molecular target: human serum albumin (HSA) (Homo sapiens, UniProt P02768); experiment: Evaluation of binding to albumin (HSA solution, PBS control); conditions: left to stand in HSA solution (45 mg/mL)
Description: Thereafter, the reaction liquids were added to a spin column (Sephadex G-100; manufactured by Cytiva), and centrifuged at 1500×g at 4° C. for 2 minutes. After separation, the radioactivity for each of the column and the eluate was measured with a gamma counter.
When a compound to be evaluated binds to albumin to form a composite, the compound passes through the column because of the increased molecular size.
As in Examples described above, PBS and human albumin were used to evaluate binding to albumin.
Thereafter, the reaction liquid was added to a spin column (Sephadex G-50; manufactured by Cytiva), and centrifuged at 1500×g at 4° C. for 2 minutes. After separation, the radioactivity of the column and the eluate was measured with a gamma counter.

human serum albumin (HSA), sequence (P02768 25-609): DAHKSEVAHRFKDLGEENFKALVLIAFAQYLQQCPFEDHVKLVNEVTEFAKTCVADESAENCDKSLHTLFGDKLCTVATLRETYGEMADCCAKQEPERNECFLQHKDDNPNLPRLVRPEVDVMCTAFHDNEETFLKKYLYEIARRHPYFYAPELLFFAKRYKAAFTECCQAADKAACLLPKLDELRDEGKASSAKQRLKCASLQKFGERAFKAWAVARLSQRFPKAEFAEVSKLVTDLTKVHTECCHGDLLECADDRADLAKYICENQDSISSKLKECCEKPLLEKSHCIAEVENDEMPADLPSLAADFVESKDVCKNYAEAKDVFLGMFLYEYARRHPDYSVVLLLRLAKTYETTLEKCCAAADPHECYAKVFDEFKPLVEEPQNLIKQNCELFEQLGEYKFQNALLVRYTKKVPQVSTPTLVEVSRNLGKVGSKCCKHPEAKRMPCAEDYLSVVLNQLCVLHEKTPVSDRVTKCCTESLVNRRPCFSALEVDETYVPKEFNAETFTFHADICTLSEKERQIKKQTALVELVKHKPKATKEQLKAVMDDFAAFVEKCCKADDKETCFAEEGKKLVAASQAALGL

**Q.** What does the source list for `O=C([O-])CN(CCN(CCc1ccc(NC(=O)[C@H](CCCCNC(=O)CCC(=O)NCCCC[C@H](NC(=O)N[C@@H](CCC(=O)O)C(=O)O)C(=O)O)NC(=O)CCCc2ccc(I)cc2)cc1)CCN(CC(=O)[O-])Cc1cccc(C(=O)[O-])n1)Cc1cccc(C(=O)[O-])n1.[111In+3]` [[^111In]In-Neunpa-2]?
**A.** Blood ([1]; 1 h after administration): 13.6 ± 0.68 % ID/g; Brain ([1]; 1 h after administration): 0.18 ± 0.00 % ID/g; Heart ([1]; 1 h after administration): 3.74 ± 0.04 % ID/g; Intestine ([1]; 1 h after administration): 1.22 ± 0.30 % ID/g; Kidney ([1]; 1 h after administration): 90.1 ± 5.81 % ID/g; LNCaP Tumor ([1]; 1 h after administration): 7.44 ± 0.18 % ID/g; Liver ([1]; 1 h after administration): 2.23 ± 0.34 % ID/g; Lung ([1]; 1 h after administration): 8.99 ± 1.68 % ID/g; Muscle ([1]; 1 h after administration): 1.09 ± 0.25 % ID/g; Pancreas ([1]; 1 h after administration): 1.61 ± 0.42 % ID/g; Spleen ([1]; 1 h after administration): 16.9 ± 2.52 % ID/g; Stomach (% ID) ([1]; 1 h after administration): 0.23 ± 0.06 % ID; Blood ([1]; 4 h after administration): 5.73 ± 0.26 % ID/g; Brain ([1]; 4 h after administration): 0.12 ± 0.01 % ID/g; Heart ([1]; 4 h after administration): 1.78 ± 0.15 % ID/g; Intestine ([1]; 4 h after administration): 1.05 ± 0.29 % ID/g; Kidney ([1]; 4 h after administration): 126 ± 17.6 % ID/g; LNCaP Tumor ([1]; 4 h after administration): 8.57 ± 0.61 % ID/g; Liver ([1]; 4 h after administration): 1.29 ± 0.02 % ID/g; Lung ([1]; 4 h after administration): 4.14 ± 0.61 % ID/g; Muscle ([1]; 4 h after administration): 0.61 ± 0.11 % ID/g; Pancreas ([1]; 4 h after administration): 0.82 ± 0.05 % ID/g; Spleen ([1]; 4 h after administration): 8.16 ± 3.89 % ID/g; Stomach (% ID) ([1]; 4 h after administration): 0.29 ± 0.18 % ID; Blood ([1]; 24 h after administration): 2.48 ± 0.07 % ID/g; Brain ([1]; 24 h after administration): 0.08 ± 0.01 % ID/g; Heart ([1]; 24 h after administration): 0.79 ± 0.08 % ID/g; Intestine ([1]; 24 h after administration): 0.68 ± 0.11 % ID/g; Kidney ([1]; 24 h after administration): 101 ± 18.7 % ID/g; LNCaP Tumor ([1]; 24 h after administration): 8.61 ± 1.06 % ID/g; Liver ([1]; 24 h after administration): 1.00 ± 0.15 % ID/g; Lung ([1]; 24 h after administration): 2.26 ± 0.29 % ID/g; Muscle ([1]; 24 h after administration): 0.27 ± 0.11 % ID/g; Pancreas ([1]; 24 h after administration): 0.65 ± 0.05 % ID/g; Spleen ([1]; 24 h after administration): 2.67 ± 0.59 % ID/g; Stomach (% ID) ([1]; 24 h after administration): 0.13 ± 0.06 % ID; Blood ([1]; 48 h after administration): 0.20 ± 0.02 % ID/g; Brain ([1]; 48 h after administration): 0.03 ± 0.00 % ID/g; Heart ([1]; 48 h after administration): 0.14 ± 0.03 % ID/g; Intestine ([1]; 48 h after administration): 0.23 ± 0.05 % ID/g; Kidney ([1]; 48 h after administration): 11.7 ± 3.83 % ID/g; LNCaP Tumor ([1]; 48 h after administration): 4.92 ± 0.70 % ID/g; Liver ([1]; 48 h after administration): 0.58 ± 0.23 % ID/g; Lung ([1]; 48 h after administration): 0.40 ± 0.10 % ID/g; Muscle ([1]; 48 h after administration): 0.05 ± 0.04 % ID/g; Pancreas ([1]; 48 h after administration): 0.25 ± 0.09 % ID/g; Spleen ([1]; 48 h after administration): 0.83 ± 0.20 % ID/g; Stomach (% ID) ([1]; 48 h after administration): 0.06 ± 0.03 % ID; Blood ([1]; 96 h after administration): 0.13 ± 0.12 % ID/g; Brain ([1]; 96 h after administration): 0.03 ± 0.02 % ID/g; Heart ([1]; 96 h after administration): 0.14 ± 0.11 % ID/g; Intestine ([1]; 96 h after administration): 0.17 ± 0.10 % ID/g; Kidney ([1]; 96 h after administration): 9.71 ± 10.8 % ID/g; LNCaP Tumor ([1]; 96 h after administration): 3.35 ± 0.90 % ID/g; Liver ([1]; 96 h after administration): 1.30 ± 1.30 % ID/g; Lung ([1]; 96 h after administration): 0.36 ± 0.24 % ID/g; Muscle ([1]; 96 h after administration): 0.03 ± 0.02 % ID/g; Pancreas ([1]; 96 h after administration): 0.18 ± 0.12 % ID/g; Spleen ([1]; 96 h after administration): 0.47 ± 0.23 % ID/g; Stomach (% ID) ([1]; 96 h after administration): 0.03 ± 0.01 % ID; Blood ([1]; 192 h after administration): 0.02 ± 0.02 % ID/g; Brain ([1]; 192 h after administration): 0.02 ± 0.00 % ID/g; Heart ([1]; 192 h after administration): 0.22 ± 0.10 % ID/g; Intestine ([1]; 192 h after administration): 0.10 ± 0.05 % ID/g; Kidney ([1]; 192 h after administration): 1.83 ± 0.67 % ID/g; LNCaP Tumor ([1]; 192 h after administration): 5.16 ± 0.23 % ID/g; Liver ([1]; 192 h after administration): 0.64 ± 0.24 % ID/g; Lung ([1]; 192 h after administration): 0.29 ± 0.07 % ID/g; Muscle ([1]; 192 h after administration): 0.08 ± 0.00 % ID/g; Pancreas ([1]; 192 h after administration): 0.29 ± 0.11 % ID/g; Spleen ([1]; 192 h after administration): 0.88 ± 0.34 % ID/g; Stomach (% ID) ([1]; 192 h after administration): 0.02 ± 0.01 % ID; radioactivity in the eluate (in words) [2]: significantly higher
